Test results published in the NIST ThermoML archive (doi:10.1016/j.jct.2006.07.004).
Numbers after ± are expanded uncertainties.

Experiment: xn = mol fraction of the nth substance listed
Details: 101 kPa, Liquid; for viscosity: Capillary tube (Ostwald / Ubbelohde) method; for mass density: Vibrating tube method

Molecule ClC(Cl)Cl [trichloromethane] + CC(=O)CC(C)C has a viscosity (283.15 K, x1 = 0.0847) of 0.685 ± 0.006 mPa·s, a viscosity (283.15 K, x1 = 0.1841) of 0.719 ± 0.006 mPa·s and a viscosity (283.15 K, x1 = 0.276) of 0.755 ± 0.006 mPa·s. It also gave a viscosity (283.15 K, x1 = 0.3529) of 0.78 ± 0.006 mPa·s, a viscosity (283.15 K, x1 = 0.4467) of 0.808 ± 0.007 mPa·s and a viscosity (283.15 K, x1 = 0.506) of 0.812 ± 0.007 mPa·s. The viscosity (283.15 K, x1 = 0.6079) was 0.814 ± 0.007 mPa·s, the viscosity (283.15 K, x1 = 0.6959) was 0.798 ± 0.007 mPa·s and the viscosity (283.15 K, x1 = 0.8213) was 0.746 ± 0.006 mPa·s. For the same molecule, the viscosity (283.15 K, x1 = 0.9067) was 0.689 ± 0.006 mPa·s, the viscosity (283.15 K, x1 = 1) was 0.629 ± 0.005 mPa·s and the mass density (283.15 K, x1 = 0.0847) was 849 ± 1 kg/m3. It also gave a mass density (283.15 K, x1 = 0.1841) of 898.2 ± 1.1 kg/m3, a mass density (283.15 K, x1 = 0.276) of 947.2 ± 1.1 kg/m3 and a mass density (283.15 K, x1 = 0.3529) of 991.1 ± 1.2 kg/m3. It also gave a mass density (283.15 K, x1 = 0.4467) of 1048.8 ± 1.3 kg/m3, a mass density (283.15 K, x1 = 0.506) of 1087.7 ± 1.4 kg/m3 and a mass density (283.15 K, x1 = 0.6079) of 1159.3 ± 1.5 kg/m3. For the same molecule, the mass density (283.15 K, x1 = 0.6959) was 1226.7 ± 1.7 kg/m3, the mass density (283.15 K, x1 = 0.8213) was 1332.6 ± 1.8 kg/m3 and the mass density (283.15 K, x1 = 0.9067) was 1412.3 ± 2 kg/m3. For the same molecule, the mass density (283.15 K, x1 = 1) was 1507.3 ± 0.7 kg/m3, the viscosity (293.15 K, x1 = 0.0847) was 0.598 ± 0.005 mPa·s and the viscosity (293.15 K, x1 = 0.1841) was 0.63 ± 0.005 mPa·s. The viscosity (293.15 K, x1 = 0.276) was 0.659 ± 0.006 mPa·s, the viscosity (293.15 K, x1 = 0.3529) was 0.678 ± 0.006 mPa·s and the viscosity (293.15 K, x1 = 0.4467) was 0.696 ± 0.006 mPa·s. The viscosity (293.15 K, x1 = 0.506) was 0.703 ± 0.006 mPa·s, the viscosity (293.15 K, x1 = 0.6079) was 0.704 ± 0.006 mPa·s and the viscosity (293.15 K, x1 = 0.6959) was 0.696 ± 0.006 mPa·s. The viscosity (293.15 K, x1 = 0.8213) was 0.664 ± 0.006 mPa·s, the viscosity (293.15 K, x1 = 0.9067) was 0.629 ± 0.005 mPa·s and the viscosity (293.15 K, x1 = 1) was 0.573 ± 0.005 mPa·s. It also gave a mass density (293.15 K, x1 = 0.0847) of 839.4 ± 1 kg/m3, a mass density (293.15 K, x1 = 0.1841) of 888.1 ± 1.1 kg/m3 and a mass density (293.15 K, x1 = 0.276) of 936.6 ± 1.1 kg/m3. The mass density (293.15 K, x1 = 0.3529) was 980.1 ± 1.2 kg/m3, the mass density (293.15 K, x1 = 0.4467) was 1037 ± 1.3 kg/m3 and the mass density (293.15 K, x1 = 0.506) was 1075.3 ± 1.4 kg/m3. For the same molecule, the mass density (293.15 K, x1 = 0.6079) was 1146 ± 1.5 kg/m3, the mass density (293.15 K, x1 = 0.6959) was 1212.4 ± 1.7 kg/m3 and the mass density (293.15 K, x1 = 0.8213) was 1316.7 ± 1.8 kg/m3. The mass density (293.15 K, x1 = 0.9067) was 1395 ± 2 kg/m3, the mass density (293.15 K, x1 = 1) was 1488.4 ± 0.7 kg/m3 and the viscosity (303.15 K, x1 = 0.0847) was 0.531 ± 0.005 mPa·s. For the same molecule, the viscosity (303.15 K, x1 = 0.1841) was 0.558 ± 0.005 mPa·s, the viscosity (303.15 K, x1 = 0.276) was 0.577 ± 0.005 mPa·s and the viscosity (303.15 K, x1 = 0.3529) was 0.596 ± 0.005 mPa·s. For the same molecule, the viscosity (303.15 K, x1 = 0.4467) was 0.616 ± 0.005 mPa·s, the viscosity (303.15 K, x1 = 0.506) was 0.62 ± 0.005 mPa·s and the viscosity (303.15 K, x1 = 0.6079) was 0.623 ± 0.005 mPa·s. It also gave a viscosity (303.15 K, x1 = 0.6959) of 0.619 ± 0.005 mPa·s, a viscosity (303.15 K, x1 = 0.8213) of 0.592 ± 0.005 mPa·s and a viscosity (303.15 K, x1 = 0.9067) of 0.56 ± 0.005 mPa·s. It also gave a viscosity (303.15 K, x1 = 1) of 0.516 ± 0.005 mPa·s, a mass density (303.15 K, x1 = 0.0847) of 829.9 ± 1 kg/m3 and a mass density (303.15 K, x1 = 0.1841) of 878 ± 1 kg/m3. For the same molecule, the mass density (303.15 K, x1 = 0.276) was 925.8 ± 1.1 kg/m3, the mass density (303.15 K, x1 = 0.3529) was 968.7 ± 1.2 kg/m3 and the mass density (303.15 K, x1 = 0.4467) was 1025 ± 1.3 kg/m3. It also gave a mass density (303.15 K, x1 = 0.506) of 1062.8 ± 1.4 kg/m3, a mass density (303.15 K, x1 = 0.6079) of 1132.5 ± 1.5 kg/m3 and a mass density (303.15 K, x1 = 0.6959) of 1197.9 ± 1.6 kg/m3. For the same molecule, the mass density (303.15 K, x1 = 0.8213) was 1300.6 ± 1.8 kg/m3, the mass density (303.15 K, x1 = 0.9067) was 1377.7 ± 2 kg/m3 and the mass density (303.15 K, x1 = 1) was 1469.4 ± 0.6 kg/m3. It also gave a viscosity (313.15 K, x1 = 0.0847) of 0.472 ± 0.004 mPa·s, a viscosity (313.15 K, x1 = 0.1841) of 0.493 ± 0.005 mPa·s and a viscosity (313.15 K, x1 = 0.276) of 0.513 ± 0.005 mPa·s. The viscosity (313.15 K, x1 = 0.3529) was 0.526 ± 0.005 mPa·s, the viscosity (313.15 K, x1 = 0.4467) was 0.542 ± 0.005 mPa·s and the viscosity (313.15 K, x1 = 0.506) was 0.551 ± 0.005 mPa·s. The viscosity (313.15 K, x1 = 0.6079) was 0.557 ± 0.005 mPa·s, the viscosity (313.15 K, x1 = 0.6959) was 0.554 ± 0.005 mPa·s and the viscosity (313.15 K, x1 = 0.8213) was 0.533 ± 0.005 mPa·s. The viscosity (313.15 K, x1 = 0.9067) was 0.503 ± 0.005 mPa·s, the viscosity (313.15 K, x1 = 1) was 0.468 ± 0.004 mPa·s and the mass density (313.15 K, x1 = 0.0847) was 820 ± 1 kg/m3. For the same molecule, the mass density (313.15 K, x1 = 0.1841) was 867.5 ± 1 kg/m3, the mass density (313.15 K, x1 = 0.276) was 914.9 ± 1.1 kg/m3 and the mass density (313.15 K, x1 = 0.3529) was 957.1 ± 1.2 kg/m3. The mass density (313.15 K, x1 = 0.4467) was 1012.6 ± 1.2 kg/m3, the mass density (313.15 K, x1 = 0.506) was 1050 ± 1.4 kg/m3 and the mass density (313.15 K, x1 = 0.6079) was 1118.7 ± 1.4 kg/m3. For the same molecule, the mass density (313.15 K, x1 = 0.6959) was 1183.2 ± 1.6 kg/m3, the mass density (313.15 K, x1 = 0.8213) was 1284.1 ± 1.7 kg/m3 and the mass density (313.15 K, x1 = 0.9067) was 1359.8 ± 1.9 kg/m3. The mass density (313.15 K, x1 = 1) was 1450 ± 0.6 kg/m3.
